Activity data for 1 compound are collected here from article doi:10.1101/2021.02.09.430557v1 (biorxiv, 2021).

This test has as its target T1, AnHSD (Paenarthrobacter nicotinovorans, UniProt A0ABT9TQY6).
T1 sequence (A0ABT9TQY6 1-348): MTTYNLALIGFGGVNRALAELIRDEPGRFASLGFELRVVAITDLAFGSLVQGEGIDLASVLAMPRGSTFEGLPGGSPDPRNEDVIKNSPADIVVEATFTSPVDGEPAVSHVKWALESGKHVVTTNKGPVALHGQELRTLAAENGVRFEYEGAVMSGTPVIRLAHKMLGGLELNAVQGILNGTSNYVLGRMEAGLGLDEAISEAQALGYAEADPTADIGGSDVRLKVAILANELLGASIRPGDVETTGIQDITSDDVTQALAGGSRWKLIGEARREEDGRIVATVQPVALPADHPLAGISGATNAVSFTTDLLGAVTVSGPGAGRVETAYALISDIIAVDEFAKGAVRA
Nature of the test: residual L-homoserine oxidation activity, absorbance at […] nm. Conditions: read-out: Relative activity (%) at 10 mM. It counts as biochemical.

For `N[C@@H](CC(=O)O)C(=O)O` [L-aspartate], the activity at 10000 µM was 76.7 ± 1.53%.
